Series [1] is described as follows: Viability of MRC-5 normal lung fibroblasts (MTT assay). In kind it is cell-based. The following applies: human. On the procedure:
(§1) To quantify cell death, around the time when significant and characteristic morphological changes took place, cells were pulse-labeled for 10 minutes with [^3H]thymidine to measure DNA activity as described elsewhere [Tomono, M. and Kiss, Z. (1995), “Ethanol enhances the stimulatory effects of insulin and insulin-like growth factor-I on DNA synthesis in NIH 3T3 fibroblasts,” Biochem. Biophys. Res. Commun. 208, 63-67]. Also, cells were collected as suspensions using trypsin, an established method in cell biology, followed by re-plating of cells in fresh tissue culture medium. If no viable cells were obtained after one week in culture, it meant that the cells at the time of re-plating were dead. Survival values obtained with untreated cells were considered 100%. For the determination of relative number of viable cells after treatments, in most cases the MTT assay was used. This calorimetric assay is based on the ability of living cells, but not dead cells, to reduce 3-(4,5-dimethyl thiazol-2-yl)-2,5-diphenyltetrazolium bromide [Carmichael, J, De Graff, W. G., Gazdar, A. F., Minna, J. D. and Mitchell, J. B. (1987), “Evaluation of tetrazolium-based semi-automated calorimetric assay: Assessment of chemosensitivity testing,” Cancer Res. 47, 936-942]. For this assay, cells were plated in 96-well plates, and the MTT assay was performed both in untreated and treated cell cultures. The MTT assay also was performed at the start of treatments to allow assessment of proliferation rates in the control and treated cell cultures.
(§2) The MRC-5 cell line is derived from normal lung tissue of a […] fetus. MRC-5 cells were maintained and treated in Eagles Medium with Hanks' BSS containing 10% fetal bovine serum. The T47D cells were maintained and treated in RPMI 1640 medium supplemented with 0.2 IU bovine insulin and 10% fetal bovine serum. The CaOV-3 human ovarian cancer cells were cultured in Dulbecco's modified Eagle's medium containing 10% fetal bovine serum. The cells were seeded in 96-well plates either at 10,000 cells per well or 30,000 cells per well to examine the antiproliferative and cytotoxic effects of various CC compounds, respectively. The cells were incubated for 24 hours, then the medium was changed followed by the treatments of cultures 2 hours after the medium change. At this point, cell cultures seeded at 10,000 cells per well and 30,000 cells per well were 25-35% and 80-90% confluent, respectively. Incubations were continued for 72 hours followed by the MTT assay. The data, shown in TABLE 2, indicate the inhibitory concentrations of CC compounds (IC50) required for 50% decrease in the number of viable cells. These numbers are calculated from the mean of 4 incubations in one experiment (the experiment was repeated once with similar results).

In series [2] the test system is MRC-5 cells. Described as above. Type of series: cell-based. The following applies: Homo sapiens, MRC5; 10,000 cells per well (25-35% confluent), 72 hours, MTT; read-out: IC50 values, Antiproliferative, MRC-5. On the procedure:
as §1, §2

For series [3], the system named is T47D cells. The series is described as follows: Viability of T47D breast cancer cells. Type of series: cell-based, human. The conditions noted are these: Homo sapiens, T47D, 72 hours, MTT. On the procedure:
as §1
About 40% confluent cultures of T47D cells, cultured in 12-well plates in RPMI 1640 medium supplemented with 0.2 IU bovine insulin and 10% FBS, were either untreated (FIG. 4A), or were treated with 100 μM CCDTHT (CCompound3) for 72 hours (FIG. 4B).
(§3) NIH3T3, T47D, A-431, HT-29, and MEL-28 cells were cultured as indicated earlier. CaOV-3 human ovarian cancer cells were cultured in DMEM containing 10% FBS. ZR-75-1 human estrogen receptor-positive breast cancer cells were maintained in RPMI 1640 medium supplemented with 10% FBS. HTB-157 human fetal fibroblasts, MEL-24 human malignant melanoma cells, Hep G2 human hepatoblastoma cells, and CaCO-2 human colon adenocarcinoma cells were maintained in Eagles's MEM containing 10% FBS. MB-231 human estrogen receptor-negative breast cancer cells were maintained in Leibovitz's L-15 medium supplemented with 10% FBS. Cells were seeded into 96-well plates and treated at ˜70-90% confluency. Two hours prior to treatments the medium was changed for fresh 10% serum medium, and then the cells were incubated for 10 days in the absence (□) or presence of 50 μM CCDTHT ? or 100 μM CCDTHT (▪). The medium was changed and the cells were re-treated on days 3 and 6. The MTT assay was used to determine cell viability on day 10. The data, shown in FIG. 6, are the mean±std. dev. of 8 incubations in one experiment.
as §2, with “respectively.” for “respectively. Incubations were continued for 72 hours followed by the MTT assay. The data, shown in TABLE 2, indicate the inhibitory concentrations of CC compounds (IC50) required for 50% decrease in the number of viable cells. These numbers are calculated from the mean of 4 incubations in one experiment (the experiment was repeated once with similar results).”

For series [4], the system named is CaOV-3 cells. As to the kind of experiment: Viability of CaOV-3 ovarian cancer cells (MTT assay). Type of series: cell-based, human. The following applies: Homo sapiens, Caov-3, 72 hours, MTT. On the procedure:
as §1
as §3, with “experiment. (The experiment was repeated twice with similar results).” for “experiment.”
as §2, with “results). […]” for “results).”
Background: Tetrazolium dyes change colour on reduction, which living cells bring about.

Series [5] deals with MCF-7 cells. The series is described as follows: Viability of MCF-7 breast cancer cells. In kind it is cell-based, human. The conditions noted are these: 2 mM Etn + 100 μM CCDTHT, 72 hours, MTT. On the procedure:
as §1
About 50% confluent cultures of MCF-7 cells, cultured in 12-well plates in Dulbecco's modified Eagle's medium (DMEM) supplemented with 10% FBS, were either untreated (FIG. 3A), or were treated with 100 μM CCDTHT (CCompound3) for 72 hours (FIG. 3B). […] This experiment was repeated three times with similar results. In some experiments, cells from the CCDTHT-treated cultures were seeded into 96-well plates, and the MTT assay was performed 96 hours later to test for viable cells.
The NIH 3T3 (normal) mouse fibroblast, A431 human epidermoid adenocarcinoma, and MCF-7 human breast cancer cells were cultured in DMEM medium containing 10% FBS. The MEL-28 human melanoma cells were cultured in MEM medium containing 10% FBS. The HT-29 human colon adenocarcinoma cells were cultured in McCoy's 5a medium containing 10% FBS. The A549 human lung carcinoma cells were maintained in Ham's F12K medium containing 10% FBS. Cells were seeded into 96-well plates and treated at ˜70-90% confluency. Two hours before treatments the medium was changed for fresh 10% serum medium, and then the cells were incubated for 72 hours in the presence of 0-200 μM of CCompound1 (●) or CCompound3 (CCDTHT) (▴), as indicated. The MTT assay was used to determine cell viability after treatments. The values, shown in FIGS. 5A-5F and expressed as percent decrease in viability compared to the untreated control cells, are the mean±std. dev. of 8 incubations in one experiment. Similar results were obtained in another experiment.
NIH 3T3, AN3CA, HT-29, MEL-28, and MCF-7 cells were cultured as described earlier. Cells were seeded into 96-well plates; when cells were ˜80-90% confluent, the medium was changed for fresh 10% serum-containing medium, followed by incubations for 72 hours in the absence (□) or presence of 100 μM CCDTHT ? , 2 mM ethanolamine (Etn) ? , or 100 μM CCDTHT+2 mM Etn (▪). The MTT assay was used to determine cell viability. […]

[6] abbreviates: MRC-5 normal lung fibroblasts, 30,000 cells per well (80-90% confluent), 72 hours, MTT, read-out: IC50 values, Cytotoxic, MRC-5.
The mark [7] stands for this setting: 10,000 cells per well (25-35% confluent), read-out: IC50 values, Antiproliferative, T47D.
Setting [8] is: 30,000 cells per well (80-90% confluent), read-out: IC50 values, Cytotoxic, T47D.
Where [9] appears, read: 10,000 cells per well (25-35% confluent), read-out: IC50 values, Antiproliferative, CaOV-3.
[10] abbreviates: 30,000 cells per well (80-90% confluent), read-out: IC50 values, Cytotoxic, CaOV-3.

Where two headings read alike, the source gives them in different places.

The IC50 is the concentration at which inhibition is half-maximal. For the compound `Cc1ccc2c(c1)/C(=C\CC[N+](C)(C)C)c1ccccc1S2` [CCcompound21, N,N,N-trimethyl-3-(2-methyl-9H-thioxanthen-9-ylidene)-propane-1-aminium iodide], the half-inhibitory concentration (IC50) at 72 h in series [1] (setting [6]) amounted to 164 µM. In addition, the IC50 was 113 µM in series [2]; 76 µM in series [3] (setting [7]); 59 µM in series [3] (setting [8]); 32 µM in series [4] (setting [9]); 29 µM in series [4] (setting [10]).
`CC[N+](C)(C)CC/C=C1/c2ccccc2Sc2ccc(C)cc21` [CCcompound22, N,N-Dimethyl-N-ethyl-3-(2-methyl-9H-thioxanthen-9-ylidene)-propane-1-aminium iodide]: the half-maximal inhibitory concentration (IC50) at 72 h in series [1] (setting [6]) was 215 µM. The half-inhibitory concentration (IC50) is 140 µM in series [2]; 65 µM in series [3] (setting [7]); 65 µM in series [3] (setting [8]); 61 µM in series [4] (setting [9]); 36 µM in series [4] (setting [10]).
With `CC[N+](C)(CC)CC/C=C1/c2ccccc2Sc2ccc(C)cc21` [CCcompound23, N,N-Diethyl-N-methyl-3-(2-methyl-9H-thioxanthen-9-ylidene)-propane-1-aminium iodide], in series [1] (setting [6]), the concentration for half-maximal inhibition (IC50) at 72 h came to 163 µM. The half-inhibitory concentration (IC50) in series [2] turned out to be 139 µM; in series [3] (setting [7]) it was 48 µM; in series [3] (setting [8]), 38 µM; in series [4] (setting [9]), 14 µM; in series [4] (setting [10]), 32 µM.
The compound `C=CC[N+](C)(C)CC/C=C1/c2ccccc2Sc2ccc(C)cc21` [CCcompound24, N,N-Dimethyl-N-allyl-3-(2-methyl-9H-thioxanthen-9-ylidene)-propane-1-aminium bromide] came in with an IC50 at 72 h in series [1] of 207 µM. For the same compound, the 50% inhibitory concentration (IC50) in series [2] was determined as 113 µM; in series [3] (setting [7]) it was 56 µM; in series [3] (setting [8]) it was 59 µM; in series [4] (setting [9]) it was 69 µM; in series [4] (setting [10]) it was 29 µM.
`CC[N+](CC)(CC)CC/C=C1/c2ccccc2Sc2ccc(C)cc21` [CCcompound25, N,N,N-triethyl-3-(2-methyl-9H-thioxanthen-9-ylidene)-propane-1-aminium-iodide]: the half-maximal inhibitory concentration (IC50) at 72 h in series [1] (setting [6]) was 123 µM. Also, the IC50 in series [2] came out at 118 µM; in series [3] (setting [7]), 18 µM; in series [3] (setting [8]), 39 µM; in series [4] (setting [9]) it was 47 µM; in series [4] (setting [10]), 66 µM.
Consider `C=CC[N+](CC)(CC)CC/C=C1/c2ccccc2Sc2ccc(C)cc21.[Br-]` [CCcompound26, N,N-diethyl-N-allyl-3-(2-methyl-9H-thioxanthen-9-ylidene)-propane-1-aminium-bromide], for which the IC50 at 72 h in series [1] is 98 µM. Also, the 50% inhibitory concentration (IC50) in series [2] stood at 86 µM; in series [3] (setting [7]), 11 µM; in series [3] (setting [8]) it was 8 µM; in series [4] (setting [9]), 57 µM; in series [4] (setting [10]) it was 59 µM.
As to `NCCO` [Etn, ethanolamine, reference compound], the “effect of Etn on CCDTHT-induced reduction in cell viability, MCF-7” value in series [5] was “clearly prevented”.

For the origin of these results see patent US7943606B2, “Compositions and methods to control abnormal cell growth” (CanCure Laboratories, LLC, priority 2005, dated 2011).
